# Measured values taken from ChEMBL document CHEMBL1130331, “Synthesis and hepatoprotective effects of soyasapogenol B derivatives” (1997).
# Test system: HepG2
# Assay: Tested in vitro for hepatoprotective effect of 10 ug/ml of compound on cell growth and lesions in Hep G2 cells treated with aflatoxin B1 (10 e -5 M)
# Assay type: functional, Homo sapiens
row,Structure (SMILES),Protection [%]
1,CC1(C)C[C@@H](O)[C@]2(C)CC[C@]3(C)C(=CCC4[C@@]5(C)CC[C@H](O)[C@](C)(CO)C5CC[C@]43C)[C@@H]2C1 (stereo partly drawn),14
2,COC[C@]1(C)C2CC[C@]3(C)C(CC=C4[C@@H]5CC(C)(C)C[C@@H](O)[C@]5(C)CC[C@]43C)[C@@]2(C)CC[C@@H]1O (stereo partly drawn),48
3,CO[C@H]1CC[C@@]2(C)C(CC[C@]3(C)C2CC=C2[C@@H]4CC(C)(C)C[C@@H](O)[C@]4(C)CC[C@]23C)[C@@]1(C)CO (stereo partly drawn),2
4,CC1(C)C[C@@H](O)[C@]2(C)CC[C@]3(C)C(=CCC4[C@@]5(C)CC[C@H](O)[C@](C)(C=O)C5CC[C@]43C)[C@@H]2C1 (stereo partly drawn),32
5,CC(=O)OC[C@]1(C)C2CC[C@]3(C)C(CC=C4[C@@H]5CC(C)(C)C[C@@H](O)[C@]5(C)CC[C@]43C)[C@@]2(C)CC[C@@H]1O (stereo partly drawn),45
6,CO[C@@H]1CC(C)(C)C[C@H]2C3=CCC4[C@@]5(C)CC[C@H](O)[C@](C)(CO)C5CC[C@@]4(C)[C@]3(C)CC[C@@]12C (stereo partly drawn),9
7,CC1(C)C[C@@H](O)[C@]2(C)CC[C@]3(C)C(=CCC4[C@@]5(C)CCC[C@](C)(CO)C5CC[C@]43C)[C@@H]2C1 (stereo partly drawn),0
8,CC1(C)C[C@@H](O)[C@]2(C)CC[C@]3(C)C(=CCC4[C@@]5(C)CC[C@H](O)[C@](C)(C(=O)O)C5CC[C@]43C)[C@@H]2C1 (stereo partly drawn),44
9,CC1(C)C[C@@H](O)[C@]2(C)CC[C@]3(C)C(=CCC4[C@@]5(C)CC[C@H](O)C(C)(C)C5CC[C@]43C)[C@@H]2C1 (stereo partly drawn),19
10,CC1(C)CC[C@]2(C)CC[C@]3(C)C(=CCC4[C@@]5(C)CC[C@H](O)[C@](C)(CO)C5CC[C@]43C)[C@@H]2C1 (stereo partly drawn),33
11,CC(=O)O[C@@H]1CC(C)(C)C[C@H]2C3=CCC4[C@@]5(C)CC[C@H](O)[C@](C)(CO)C5CC[C@@]4(C)[C@]3(C)CC[C@@]12C (stereo partly drawn),11
12,CC(=O)O[C@H]1CC[C@@]2(C)C(CC[C@]3(C)C2CC=C2[C@@H]4CC(C)(C)C[C@@H](O)[C@]4(C)CC[C@]23C)[C@@]1(C)CO (stereo partly drawn),0

# Test system: HepG2
# Assay: Tested in vitro for hepatoprotective effect of 20 ug/ml of compound on cell growth and lesions in Hep G2 cells treated with aflatoxin B1 (10 e -5 M)
# Assay type: functional, Homo sapiens
row,Structure (SMILES),Protection [%]
1,CC1(C)[C@@H](O[C@H]2O[C@H](C(=O)O)[C@@H](O)[C@H](O)[C@H]2O[C@@H]2O[C@H](C(=O)O)[C@@H](O)[C@H](O)[C@H]2O)CC[C@]2(C)[C@H]3C(=O)C=C4[C@@H]5C[C@@](C)(C(=O)O)CC[C@]5(C)CC[C@@]4(C)[C@]3(C)CC[C@@H]12 [GLYCYRRHIZIN],15
